Legend:
Experiment in all cases: relative viability (nuclei count vs DMSO), 5 days (fraction); higher = more cells survive
[1] = compound: CN1CCN(CC1)C2=CC(=C(C=C2)NC3=NC=C4C(=N3)N(C5=CC=CC=C5C(=O)N4C)C)OC [XMD8-85] + COc1cc2c(Oc3ccc(NC(=O)C4(C(=O)Nc5ccc(F)cc5)CC4)cc3F)ccnc2cc1OCCCN1CCOCC1 [Foretinib] (partner 0.25 µM)
In short: (§1)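 Relative viability is defined as nuclei in treated wells over nuclei in vehicle wells. Duplicate plates were run and medians reported. Lung cancer cell lines in 1536-well plates were dosed by pin tool one day after seeding, with one drug or with a fixed anchor-drug dose plus five library-drug doses (not always all listed) in √10 steps, and nuclei were counted after 5 days.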

[2] = compound: O=C(O)C(Cc1ccccc1[N+](=O)[O-])=NNc1nc(-c2ccc(Cl)c(Cl)c2)cs1 (mixture of isomers) [4EGI-1] + O=C(c1cc(Cc2n[nH]c(=O)c3ccccc23)ccc1F)N1CCN(C(=O)C2CC2)CC1 [Olaparib] (partner 8 µM)
In short: as §1

[3] = compound: CN1CCN(CC1)C2=CC(=C(C=C2)NC3=NC=C4C(=N3)N(C5=CC=CC=C5C(=O)N4C)C)OC [XMD8-85] + CS(=O)(=O)N1CCN(Cc2cc3nc(-c4cccc5[nH]ncc45)nc(N4CCOCC4)c3s2)CC1 [Pictilisib] (partner 1 µM)
In short: as §1

[4] = compound: O=C(O)C(Cc1ccccc1[N+](=O)[O-])=NNc1nc(-c2ccc(Cl)c(Cl)c2)cs1 (mixture of isomers) [4EGI-1] + Cc1cc(Nc2cc(N3CCN(C)CC3)nc(Sc3ccc(NC(=O)C4CC4)cc3)n2)n[nH]1 [Tozasertib] (partner 0.1 µM)
In short: as §1

Row | Cell Line | relative viability ([1]; first compound 0.08 µM) | relative viability ([1]; first compound 0.253 µM) | relative viability ([1]; first compound 0.8 µM) | relative viability ([1]; first compound 2.53 µM) | relative viability ([1]; first compound 8 µM) | relative viability ([2]; first compound 0.5 µM) | relative viability ([2]; first compound 5 µM) | relative viability ([2]; first compound 15.81 µM) | relative viability ([2]; first compound 50 µM) | relative viability ([3]; first compound 0.08 µM) | relative viability ([3]; first compound 0.253 µM) | relative viability ([3]; first compound 0.8 µM) | relative viability ([3]; first compound 2.53 µM) | relative viability ([3]; first compound 8 µM) | relative viability ([4]; first compound 0.5 µM) | relative viability ([4]; first compound 5 µM) | relative viability ([4]; first compound 15.81 µM) | relative viability ([4]; first compound 50 µM) | relative viability ([2]; first compound 1.581 µM) | relative viability ([4]; first compound 1.581 µM)
1 | RERF-LC-KJ | 0.84 | 0.762 | 0.877 | 0.877 | 0.849 | 0.97 | 0.902 | 0.489 | 0.254 | 0.504 | 0.444 | 0.524 | 0.603 | 0.412 | 0.547 | 0.425 | 0.363 | 0.216 | – | –
2 | 201T | 1.13 | 1.24 | 1.13 | 0.733 | 0.703 | 0.859 | 0.869 | 0.777 | 0.675 | 0.635 | 0.677 | 0.723 | 0.746 | 0.556 | 1.01 | 0.905 | 0.771 | 0.475 | 0.753 | 0.91
3 | HCC-827 | 1.03 | 1.1 | 0.948 | 1.13 | 1.11 | 0.572 | 0.703 | – | 0.406 | 1.16 | 1.03 | 0.902 | 1.11 | 1.15 | 0.428 | 0.415 | – | 0.358 | 0.457 | 0.422
4 | NCI-H838 | 0.941 | 1 | 1.08 | 0.91 | 0.569 | 0.752 | 0.677 | 0.372 | 0.161 | 0.423 | 0.455 | 0.503 | 0.429 | 0.317 | 0.261 | 0.263 | 0.235 | 0.172 | 0.752 | –
5 | NCI-H1734 | 0.858 | 0.853 | 0.896 | 0.842 | 0.629 | 0.642 | 0.695 | 0.435 | 0.244 | 0.45 | 0.397 | 0.477 | 0.502 | 0.475 | 0.263 | 0.263 | 0.288 | 0.214 | 0.512 | 0.27
6 | NCI-H441 | 1.11 | 0.971 | 1.15 | 1.13 | 0.644 | 0.654 | 0.597 | 0.315 | 0.192 | 0.405 | 0.389 | 0.608 | 0.438 | 0.389 | 0.688 | 0.574 | 0.541 | 0.284 | 0.425 | 0.538
7 | NCI-H1355 | 1.02 | 1.01 | 0.977 | 0.878 | 0.811 | 0.86 | 0.795 | 0.469 | 0.334 | 0.458 | 0.41 | 0.485 | 0.449 | 0.33 | 0.551 | 0.559 | 0.429 | 0.291 | 0.742 | 0.551
8 | NCI-H2085 | 0.902 | 0.854 | 0.823 | 0.751 | 0.563 | 0.764 | 0.739 | 0.726 | 0.374 | 0.378 | 0.427 | 0.467 | 0.436 | 0.445 | 0.835 | 0.836 | 0.724 | 0.775 | 0.72 | 0.859
9 | NCI-H520 | 0.798 | 0.729 | 0.895 | 0.741 | 0.484 | 0.375 | 0.458 | 0.265 | 0.13 | 0.222 | 0.271 | 0.295 | 0.248 | 0.231 | 0.47 | 0.499 | 0.385 | 0.371 | 0.329 | 0.496
10 | NCI-H647 | 1.37 | 1.3 | 1.34 | 1.04 | 0.865 | 0.515 | 0.469 | 0.129 | 0.0662 | 0.473 | 0.45 | 0.367 | 0.434 | 0.155 | 0.262 | 0.35 | 0.199 | 0.133 | 0.42 | –
11 | NCI-H358 | 0.656 | 0.774 | 0.84 | 0.673 | 0.422 | 0.599 | 0.531 | 0.336 | 0.118 | 0.353 | 0.366 | 0.359 | 0.362 | 0.304 | 0.102 | 0.102 | 0.102 | 0.0781 | 0.58 | 0.117
12 | NCI-H1944 | – | 1.04 | 0.898 | 0.836 | 0.571 | 0.506 | 0.391 | 0.308 | 0.298 | 0.326 | 0.332 | 0.351 | 0.333 | 0.307 | 0.262 | 0.241 | 0.192 | 0.202 | – | –
13 | LU99A | 0.768 | – | 0.761 | 0.854 | 0.597 | 0.243 | 0.242 | 0.193 | 0.141 | 0.32 | 0.302 | 0.339 | 0.367 | 0.33 | 0.258 | 0.298 | 0.28 | 0.208 | 0.212 | 0.227
14 | SW 1573 | 0.876 | 0.884 | 0.854 | 1 | 0.762 | 0.529 | 0.672 | 0.213 | 0.113 | 0.574 | 0.523 | 0.591 | 0.487 | 0.357 | 0.176 | 0.149 | 0.172 | 0.102 | 0.317 | 0.188
15 | ChaGo-K-1 | 0.823 | 1.01 | 0.93 | 0.867 | 0.774 | 0.386 | 0.407 | 0.34 | 0.217 | 0.808 | 0.692 | 0.689 | 0.697 | 0.303 | 0.209 | 0.212 | 0.209 | 0.208 | 0.406 | 0.208
16 | HARA | 1.09 | 0.701 | 0.97 | 0.782 | 0.583 | 0.848 | 1 | 0.515 | 0.18 | 0.47 | 0.473 | 0.455 | 0.436 | 0.259 | 0.129 | 0.101 | 0.105 | 0.0717 | 0.68 | 0.121

From the supplement of paper PMC10307832
